Structures can show the parent of a compound that is named as a salt.
What was measured:
[1] = Mouse Writhing Inhibition Assay; assay type: in vivo, Cox standard strain albino male mice
Experimental: Writhing, which is characterized by contraction of the abdominal musculature, extension of the hindlegs, and rotation of the trunk, was induced in Cox standard strain albino male mice. The mice, weighing 18-24 grams, were fasted overnight and given the test compound by gavage in an acacia suspension (5%) 60 minutes before writhing was induced by the intraperitoneal administration of 55 mg./kg. of acetic acid (0.55 percent). Each treatment group consisted of 3 mice. The total number of writhes for the treatment group was determined during a 5-minute observation starting 5 minutes after acetic acid administration.

[2] = Appetite Suppression Assay; assay type: in vivo, Cox standard strain albino male mice; conditions: Mus musculus
Experimental: In this test, groups of three Cox standard strain albino male mice were weighed (18-24 grams) and then fasted overnight (16-18 hours). The mice were reweighed and then given the test compound in a suspension of acacia (5%) by gavage. Thirty minutes after oral administration, the mice were allowed to eat freely for one hour. After the eating period, the mice were weighed once more. The percent of weight gained (from the time the mice were given the test compound to after the feeding period) compared to weight lost during the fast period was calculated. The non-drug treated control animals gained back 35-55% of the weight lost on fasting. Any compound at the dose level tested which produced a weight gain of less than 10% was considered to be active. The results in Table 2 report the lowest dose level in which there was activity for each compound tested. Dextroamphetamine sulfate is active in this system at about 2.5 mg./kg.

[3] = Metrazole Induced Convulsion Inhibition Assay; assay type: in vivo, Cox standard strain albino male mice; conditions: Mus musculus
Experimental: (§1) In this assay, a compound to be tested was suspended in acacia (5%) and administered by gavage to each of three Cox standard strain albino male mice (18-24 grams) at the dose level being investigated. One hour after the oral administration, a water solution of metrazole (pentylenetetrazole) was administered by the intraperitoneal route to each mouse at a dose of 110 mg./kg. […] A score of 0 was assigned to a mouse not showing any signs of convulsant activity; a score of 1 was given to mice developing clonic convulsions; a score of 2 was given to mice showing flexor tonic convulsions; a score of 3 was given to mice showing extensor tonic convulsions; and a score of 4 was given to mice that died within the one hour. The scores of the three mice were totalled for each compound and dose level. The scores can range from 0 to 12; a score of 6 or less was interpreted as indicative of an active compound at that dose level. Values reported in Table 2 below are the minimum oral dose levels (mg./kg.) where activity as defined above was observed.

[4] = Electroshock Induced Convulsion Inhibition Assay; assay type: in vivo, Cox standard strain albino male mice; conditions: Mus musculus
Experimental: as §1
The drug administration and test conditions used in this assay were similar to those used in the metrazole induced convulsion inhibition assay above except that a 0.1 second, 50 milliampere electroshock through corneal electrodes induced the convulsion instead of metrazole. The animals were examined and evaluated immediately after the electroshock and were scored as before. The results in Table 2 are expressed as the lowest dose of each compound tested which was active as previously defined. For comparison, 18 milliamperes was usually sufficient to produce extensor tonic convulsions in about half of the control animals; at 50 milliamperes, almost all control animals died. Diazepam was active at about 1 mg./kg.

benzodiazepine receptor = test: In vitro activation of benzodiazepine (BZ) binding (flunirazepam, native membrane protein); conditions: average of one or more tests, read-out: SC50 BZ (nanomolar concentration producing a 50% increase in binding)
Experimental: (§2) The novel compounds of this invention were examined for their in vitro ability to activate GABA and benzodiazepine (BZ) binding. To measure the effect of a compound on GABA binding, Triton X-100 (octylphenoxy polyethoxyethanol, Rohm and Haas Co.) treated membrane protein was incubated in the presence of the compound and [^3 H]GABA as detailed by Horng and Wong, J. Neurochemistry, 32 (5), 1379 (1979). To examine BZ binding, H-flunirazepam and the compounds were incubated with native membrane protein as reported by Wong, et al, Brain Res. Bull., 5 (Suppl. 2), 853 (1980). The results in Table 1 are the nanomolar concentrations of compounds (by Example No.) which produced a 50 percent increase (SC50) in GABA or BZ binding. Each result is the average of one or more tests.

GABA receptor = test: In vitro activation of GABA binding ([3H]GABA, Triton X-100 treated membrane protein); conditions: average of one or more tests, read-out: SC50 GABA (nanomolar concentration producing a 50% increase in binding)
Experimental: as §2

[5] = oral gavage 60 min before acetic acid 55 mg./kg. i.p., active = less than ten writhes, read-out: Minimum active oral dose, Mouse Writhing
[6] = oral gavage, 1 h before metrazole 110 mg./kg. i.p., active = total score of 6 or less (3 mice, range 0-12), read-out: Minimum active oral dose, Metrazole
[7] = oral, 0.1 second, 50 milliampere corneal electroshock, active = total score of 6 or less, read-out: Minimum active oral dose, Electro-Shock
[8] = oral gavage 30 min before feeding, active = weight gain of less than 10% of weight lost on fasting, read-out: Minimum active oral dose, Appetite Suppression

SMILES | minimal effective dose ([1]; po, read-out: dose showing activity, mouse writhing (reference)) [mg/kg] | minimal effective dose ([2]; po, read-out: dose showing activity, appetite suppression (reference)) [mg/kg] | minimal effective dose ([3]; po, read-out: dose showing activity, metrazole test (reference)) [mg/kg] | minimal effective dose ([4]; po, read-out: dose showing activity, electroshock test (reference)) [mg/kg] | minimal effective dose [1, 5] [mg/kg] | EC50 (benzodiazepine receptor) [nM] | minimal effective dose [3, 6] [mg/kg] | minimal effective dose [4, 7] [mg/kg] | EC50 (GABA receptor) [nM] | minimal effective dose [2, 8] [mg/kg]
CC(=O)Oc1ccccc1C(=O)O [Aspirin, acetyl salicylic acid, reference compound] | 200 | – | – | – | – | – | – | – | – | –
C[C@H](N)Cc1ccccc1 [Dextroamphetamine sulfate, reference compound] | – | ~2.5 | – | – | – | – | – | – | – | –
CN1C(=O)CN=C(c2ccccc2)c2cc(Cl)ccc21 [Diazepam, reference compound] | – | – | ~1 | ~1 | – | – | – | – | – | –
Cc1ccc(-c2nnc(N3CCC(O)CC3)nc2-c2ccc(C)cc2)cc1 [Example 7, 1-[5,6-bis(4-methylphenyl)-1,2,4-triazin-3-yl]-4-piperidinol] | – | – | – | – | 3.1 | 700 | 3.1 | < 25 | 900 | 3.1
OC1CCN(c2nnc(-c3ccc(Cl)cc3)c(-c3ccc(Cl)cc3)n2)CC1 [Example 11, 1-[5,6-bis(4-chlorophenyl)-1,2,4-triazin-3-yl]-4-piperidinol] | – | – | – | – | > 25 | – | 12.5 | > 25 | – | 25
CC(=O)OC1CCN(c2nnc(-c3ccc(C)cc3)c(-c3ccc(C)cc3)n2)CC1 [Example 12, 1-[5,6-bis(4-methylphenyl)-1,2,4-triazin-3-yl]-4-piperidinol, acetate (ester)] | – | – | – | – | 12.5 | 5.5 | 6.25 | 25 | 3.3 | 12.5
CC(=O)OC1CCN(c2nnc(-c3ccc(Cl)cc3)c(-c3ccc(Cl)cc3)n2)CC1 [Example 13, 1-[5,6-bis[4-chlorophenyl]-1,2,4-triazin-3-yl]-4-piperidinol, acetate (ester)] | – | – | – | – | > 50 | 12 | 50 | > 50 | 15 | > 50
CC(=O)OC1CCN(c2nnc(-c3ccccc3C)c(-c3ccccc3C)n2)CC1 [Example 14, 1-[5,6-bis(2-methylphenyl)-1,2,4-triazin-3-yl]-4-piperidinol, acetate (ester)] | – | – | – | – | > 200 | 1000 | 200 | > 200 | 60 | 200
CCC(=O)OC1CCN(c2nnc(-c3ccc(C)cc3)c(-c3ccc(C)cc3)n2)CC1 [Example 15, 1-[5,6-bis(4-methylphenyl)-1,2,4-triazin-3-yl]-4-piperidinol, propanoate (ester)] | – | – | – | – | 12.5 | 19 | 12.5 | 12.5 | 10 | 12.5
Cc1ccc(-c2nnc(N3CCC(OC(=O)c4ccccc4)CC3)nc2-c2ccc(C)cc2)cc1 [Example 17, 1-[5,6-bis(4-methylphenyl)-1,2,4-triazin-3-yl]-4-piperidinol, benzoate (ester)] | – | – | – | – | > 200 | 1000 | > 200 | > 200 | 500 | > 200
